Data reported in patent US20080009418A1, “Selective Inhibitors” (Alchemia LTD., priority 2004, published 2008).

Tests used:
Details in all cases: compound at 10 μM
Human melanocortin (MC5) = biological target: T1, Human melanocortin (MC5) (Homo sapiens, UniProt P33032); experiment: Radioligand binding, human melanocortin MC5 membranes, FlashPlate, [125I]-NDP-αMSH
T1 construct: purchased Perkin Elmer Biosignal
Protocol: (§1) Cloned receptor membrane preparations from Perkin Elmer Biosignal™ were used in radioligand binding assays.
(§2) A1 Human δ-opioid (DOP), A2 Human κ-Opioid (KOP), A3 Human Melanocortin (MC3), A4 Human Melanocortin (MC4), A5 Human melanocortin (MC5), A6 Human melanin-concentrating hormone (MCH1), A7 Human μ-opioid (MOP), A8 Human neurokinin (NK1), A9 Human neuropeptide Y (NPY-Y1), A10 Human opioid (ORL1) A11 Mouse urotensin (mUR2)
(§3) Screening experiments were performed in either a 50 μl filtration or 25 μl FlashPlate assay format using the following protocol:
(§4) 19.5 μl buffer, 0.5 μl of compound diluted in DMSO, 5 μl of radioligand diluted in binding buffer.
(§5) The day prior to performing the experiment 50 μl DMSO was added to each well of the compound plates to yield compounds at a final concentration of 10 mM. Daughter plates were then created by diluting the compounds further in DMSO to a concentration of 0.5 mM. The mother plates were frozen immediately.
(§6) Immobilize membranes into FlashPlate microplates using PerkinElmer BioSignal's proprietary coating procedure. Dilute radioligand to 5× the final concentration in binding buffer. Add 19.5 μl buffer to each well of the FlashPlate. Add 0.5 μl of DMSO (total value, 5 wells), reference ligand (non-specific value, 3 wells) or compound to the corresponding wells in the FlashPlate microplate. Initiate the reaction by adding 5 μl of radioligand to each well. Apply TopSeal-A onto FlashPlate microplates. Incubate at room temperature for 1 hour in the dark. Count for 30 seconds per well on TopCount Microplate Scintillation and Luminescence Counter (PerkinElmer) using a count delay of 60 seconds.
(§7) Percentage inhibition was calculated using the following formula: [formula]

Human μ-opioid (MOP) = biological target: T2, Human μ-opioid (MOP) (Homo sapiens, UniProt P35372); experiment: Radioligand binding, human μ-opioid (MOP) membranes, FlashPlate, [3H]-Naloxone
T2 construct: purchased Perkin Elmer Biosignal
T2 sequence (P35372 whole entry): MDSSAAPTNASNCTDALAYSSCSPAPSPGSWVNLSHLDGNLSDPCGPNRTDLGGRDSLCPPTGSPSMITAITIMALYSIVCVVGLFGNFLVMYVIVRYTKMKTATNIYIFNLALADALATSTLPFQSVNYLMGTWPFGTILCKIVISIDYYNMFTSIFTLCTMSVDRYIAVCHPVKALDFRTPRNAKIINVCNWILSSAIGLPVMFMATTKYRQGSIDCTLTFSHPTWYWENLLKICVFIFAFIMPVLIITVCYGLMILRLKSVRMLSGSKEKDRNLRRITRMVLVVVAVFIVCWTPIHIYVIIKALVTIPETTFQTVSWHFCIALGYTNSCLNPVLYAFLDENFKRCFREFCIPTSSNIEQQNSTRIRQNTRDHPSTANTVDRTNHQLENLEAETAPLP
Protocol: as §1, §2, §3, §4, §5, §6, §7

Human Melanocortin (MC3) = biological target: T3, Human Melanocortin (MC3) (Homo sapiens, UniProt P41968); experiment: Radioligand binding, human melanocortin MC3 membranes, FlashPlate, [125I]-NDP-αMSH
T3 construct: purchased Perkin Elmer Biosignal
T3 sequence (P41968 whole entry): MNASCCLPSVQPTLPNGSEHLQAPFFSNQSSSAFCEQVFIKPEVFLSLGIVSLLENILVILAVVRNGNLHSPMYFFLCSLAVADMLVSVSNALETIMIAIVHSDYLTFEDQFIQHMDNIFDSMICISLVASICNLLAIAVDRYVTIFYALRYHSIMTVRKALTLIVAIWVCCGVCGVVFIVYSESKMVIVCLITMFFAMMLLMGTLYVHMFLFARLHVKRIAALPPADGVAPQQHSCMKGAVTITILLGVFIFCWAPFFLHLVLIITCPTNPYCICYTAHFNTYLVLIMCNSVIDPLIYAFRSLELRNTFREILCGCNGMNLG
Protocol: as §1, §2, §3, §4, §5, §6, §7

Human κ-Opioid (KOP) = biological target: T4, Human κ-Opioid (KOP) (Homo sapiens, UniProt P41145); experiment: Radioligand binding, human κ-opioid (KOP) membranes, filtration, [3H]-Diprenorphine
T4 construct: purchased Perkin Elmer Biosignal
T4 sequence (P41145 whole entry): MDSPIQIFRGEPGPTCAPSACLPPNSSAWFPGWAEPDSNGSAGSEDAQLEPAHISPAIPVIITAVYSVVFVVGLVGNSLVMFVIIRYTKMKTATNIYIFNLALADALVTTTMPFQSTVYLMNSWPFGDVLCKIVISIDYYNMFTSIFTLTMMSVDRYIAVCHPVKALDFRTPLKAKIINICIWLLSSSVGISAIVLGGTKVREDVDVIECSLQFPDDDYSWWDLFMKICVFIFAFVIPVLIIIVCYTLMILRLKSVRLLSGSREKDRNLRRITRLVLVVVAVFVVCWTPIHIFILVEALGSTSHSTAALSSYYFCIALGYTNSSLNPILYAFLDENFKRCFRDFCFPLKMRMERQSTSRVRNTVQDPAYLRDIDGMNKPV
Protocol: as §1, §2, §3
(§8) 44 μl membranes diluted in buffer, 1 μl of compound diluted in DMSO, 5 μl of radioligand diluted in binding buffer.
as §5
(§9) Thaw membranes on ice then dilute membranes in binding buffer at a concentration of 1 Unit per well. Dilute radio-ligand to 10 times the final concentration in binding buffer. Add 44 μl of diluted membranes to each well of the deep-well plate. Add 1 μl of DMSO (total value, 5 wells), reference ligand (non-specific value, 3 wells) or compound to the corresponding wells in the deep-well plate. Initiate the reaction by adding 5 μl of radioligand to each well and vortex gently. Incubate at room temperature for 1 hour. During incubation, pre-incubate the Multiscreen Harvest plates in 0.3% PEI. Filter over pre-soaked Multiscreen Harvest plates using a Tomtec Harvester. Wash 9 times with 500 μl of cold 50 mM Tris-HCl pH 7.4 at 4° C. and air-dry for 30 minutes at room temperature under a fume hood. Apply a bottom seal to the Multiscreen Harvest plates. Add 25 μl of MicroScint-0 to each well. Apply TopSeal-A to the plate. Count for 30 seconds per well on TopCount Microplate Scintillation and Luminescence Counter (PerkinElmer) using a count delay of 60 seconds.
as §7

Human neurokinin (NK1) = biological target: T5, Human neurokinin (NK1) (Homo sapiens, UniProt P25103); experiment: Radioligand binding, human neurokinin NK1 membranes, filtration, [125I]-Substance P
T5 construct: purchased Perkin Elmer Biosignal
T5 sequence (P25103 whole entry): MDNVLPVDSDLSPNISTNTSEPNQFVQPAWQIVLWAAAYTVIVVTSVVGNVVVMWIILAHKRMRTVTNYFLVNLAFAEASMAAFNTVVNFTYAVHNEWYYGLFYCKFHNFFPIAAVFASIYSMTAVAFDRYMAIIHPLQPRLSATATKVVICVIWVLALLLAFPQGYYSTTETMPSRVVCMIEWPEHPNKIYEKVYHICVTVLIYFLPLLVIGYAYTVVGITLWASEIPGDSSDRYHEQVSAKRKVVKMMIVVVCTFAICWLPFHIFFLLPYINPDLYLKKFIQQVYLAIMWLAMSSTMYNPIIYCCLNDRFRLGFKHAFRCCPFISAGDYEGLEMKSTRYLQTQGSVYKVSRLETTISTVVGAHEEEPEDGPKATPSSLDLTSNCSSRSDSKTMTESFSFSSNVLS
Protocol: as §1, §2, §3, §8, §5, §9, §7

Human opioid (ORL1) = biological target: T6, Human opioid (ORL1) (Homo sapiens, UniProt P41146); experiment: Radioligand binding, human opioid ORL1 membranes, FlashPlate, [125I]-Nociceptin
T6 construct: purchased Perkin Elmer Biosignal
T6 sequence (P41146 whole entry): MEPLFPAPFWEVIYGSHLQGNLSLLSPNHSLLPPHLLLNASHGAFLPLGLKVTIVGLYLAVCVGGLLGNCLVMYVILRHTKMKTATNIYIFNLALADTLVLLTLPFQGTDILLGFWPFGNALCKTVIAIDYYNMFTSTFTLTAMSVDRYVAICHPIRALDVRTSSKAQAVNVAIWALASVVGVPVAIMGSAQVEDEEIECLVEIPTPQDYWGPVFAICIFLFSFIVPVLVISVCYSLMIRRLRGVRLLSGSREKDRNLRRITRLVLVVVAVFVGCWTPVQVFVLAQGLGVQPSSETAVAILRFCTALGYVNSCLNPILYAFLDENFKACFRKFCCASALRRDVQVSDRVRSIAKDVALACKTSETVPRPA
Protocol: as §1, §2, §3, §4, §5, §6, §7

[1] = biological target: T7, Human neuropeptide Y (NPY-Y1) (Homo sapiens, UniProt P25929); experiment: Radioligand binding, human neuropeptide Y NPY-Y1 membranes, FlashPlate, [125I]-PYY
T7 construct: purchased Perkin Elmer Biosignal
T7 sequence (P25929 1-384): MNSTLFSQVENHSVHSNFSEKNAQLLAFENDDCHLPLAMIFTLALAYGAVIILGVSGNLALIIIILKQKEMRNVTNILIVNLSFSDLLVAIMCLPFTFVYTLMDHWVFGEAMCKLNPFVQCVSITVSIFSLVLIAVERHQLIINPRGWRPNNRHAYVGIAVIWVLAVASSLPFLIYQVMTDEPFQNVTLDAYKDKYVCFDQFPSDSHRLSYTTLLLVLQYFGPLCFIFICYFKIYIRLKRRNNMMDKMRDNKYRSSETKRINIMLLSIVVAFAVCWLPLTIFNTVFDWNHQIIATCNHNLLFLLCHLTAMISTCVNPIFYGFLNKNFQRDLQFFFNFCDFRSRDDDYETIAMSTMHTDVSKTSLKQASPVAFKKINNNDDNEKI
Protocol: as §1, §2, §3, §4, §5, §6, §7

[2] = biological target: T8, Human melanin-concentrating hormone (MCH1) (Homo sapiens, UniProt Q99705); experiment: Radioligand binding, human melanin-concentrating hormone MCH1 membranes, FlashPlate, [125I]-S36057
T8 construct: purchased Perkin Elmer Biosignal
T8 sequence (Q99705 whole entry): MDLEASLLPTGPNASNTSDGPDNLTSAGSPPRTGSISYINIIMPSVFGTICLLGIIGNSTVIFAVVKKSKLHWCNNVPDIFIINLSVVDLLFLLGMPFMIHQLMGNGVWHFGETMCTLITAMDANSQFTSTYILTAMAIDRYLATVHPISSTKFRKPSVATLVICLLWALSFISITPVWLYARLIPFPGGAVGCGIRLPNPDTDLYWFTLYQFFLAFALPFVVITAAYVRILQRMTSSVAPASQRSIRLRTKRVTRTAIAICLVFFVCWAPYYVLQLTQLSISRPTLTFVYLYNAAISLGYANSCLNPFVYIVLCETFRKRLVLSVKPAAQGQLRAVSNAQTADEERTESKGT
Protocol: as §1, §2, §3, §4, §5, §6, §7

Mouse urotensin (mUR2) = biological target: T9, Mouse urotensin (mUR2) (Mus musculus, UniProt Q8VIH9); experiment: Radioligand binding, mouse urotensin mUR2 membranes, FlashPlate, [125I]-Urotensin II
T9 construct: purchased Perkin Elmer Biosignal
T9 sequence (Q8VIH9 1-385): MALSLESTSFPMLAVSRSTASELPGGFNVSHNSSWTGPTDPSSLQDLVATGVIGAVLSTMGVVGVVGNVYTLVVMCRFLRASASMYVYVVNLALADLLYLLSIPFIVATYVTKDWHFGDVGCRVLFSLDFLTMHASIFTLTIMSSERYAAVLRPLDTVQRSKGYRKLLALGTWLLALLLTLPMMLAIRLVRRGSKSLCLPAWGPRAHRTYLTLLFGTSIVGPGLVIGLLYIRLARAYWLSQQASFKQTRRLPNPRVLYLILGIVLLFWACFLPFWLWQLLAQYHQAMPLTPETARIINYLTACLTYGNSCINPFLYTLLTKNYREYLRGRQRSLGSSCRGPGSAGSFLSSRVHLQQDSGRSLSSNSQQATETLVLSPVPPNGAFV
Protocol: as §1, §2, §3, §4, §5, §6, §7

Human δ-opioid (DOP) = biological target: T10, Human δ-opioid (DOP) (Homo sapiens, UniProt P41143); experiment: Radioligand binding, human δ-opioid (DOP) membranes, FlashPlate, [3H]-Bremazocine
T10 construct: purchased Perkin Elmer Biosignal
T10 sequence (P41143 whole entry): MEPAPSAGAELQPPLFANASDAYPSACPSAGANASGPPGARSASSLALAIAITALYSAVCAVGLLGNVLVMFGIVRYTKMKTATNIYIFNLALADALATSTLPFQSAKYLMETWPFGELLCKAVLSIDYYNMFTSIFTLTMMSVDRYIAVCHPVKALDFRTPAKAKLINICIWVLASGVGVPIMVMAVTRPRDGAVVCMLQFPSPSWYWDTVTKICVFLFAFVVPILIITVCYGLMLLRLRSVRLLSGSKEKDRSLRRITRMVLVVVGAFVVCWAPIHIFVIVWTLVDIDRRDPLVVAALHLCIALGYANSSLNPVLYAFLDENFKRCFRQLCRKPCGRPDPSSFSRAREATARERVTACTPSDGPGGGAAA
Protocol: as §1, §2, §3, §4, §5, §6, §7

Human Melanocortin (MC4) = biological target: T11, Human Melanocortin (MC4) (Homo sapiens, UniProt P32245); experiment: Radioligand binding, human melanocortin MC4 membranes, FlashPlate, [125I]-NDP-αMSH
T11 construct: purchased Perkin Elmer Biosignal
T11 sequence (P32245 whole entry): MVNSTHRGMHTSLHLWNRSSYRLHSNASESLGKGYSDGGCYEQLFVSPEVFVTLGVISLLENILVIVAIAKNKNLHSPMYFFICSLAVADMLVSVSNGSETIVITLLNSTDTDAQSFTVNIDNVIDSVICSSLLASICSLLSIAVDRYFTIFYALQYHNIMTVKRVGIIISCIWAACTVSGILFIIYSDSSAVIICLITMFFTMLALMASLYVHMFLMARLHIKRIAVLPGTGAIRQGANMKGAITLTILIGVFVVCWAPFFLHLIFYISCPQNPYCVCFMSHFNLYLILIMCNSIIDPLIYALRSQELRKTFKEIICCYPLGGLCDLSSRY
Protocol: as §1, §2, §3, §4, §5, §6, §7

T1 sequence (P33032 whole entry): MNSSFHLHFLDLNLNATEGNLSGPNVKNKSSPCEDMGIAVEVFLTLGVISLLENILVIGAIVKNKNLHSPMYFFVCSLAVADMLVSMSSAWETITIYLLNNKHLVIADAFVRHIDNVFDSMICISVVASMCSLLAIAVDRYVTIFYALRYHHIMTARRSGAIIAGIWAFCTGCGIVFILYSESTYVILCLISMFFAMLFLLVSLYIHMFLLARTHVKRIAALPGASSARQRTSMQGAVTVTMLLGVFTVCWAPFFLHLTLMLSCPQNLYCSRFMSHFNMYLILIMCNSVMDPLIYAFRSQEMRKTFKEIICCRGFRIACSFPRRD

SMILES: CO[C@H]1[C@H](O)[C@@H](COCc2ccc(Cl)cc2)OC(OCc2ccc3ccccc3c2)[C@@H]1NC(=O)CNC(=N)N (stereo partly shown) [compound 78]
- A5 radioligand binding inhibition (Human melanocortin (MC5); human melanocortin MC5 membranes): + (“+” indicates greater than 50% inhibition at 10 μM)
- A7 radioligand binding inhibition (Human μ-opioid (MOP); human μ-opioid (MOP) membranes): − (“−” indicates less than 50% inhibition at 10 μM)
- A3 radioligand binding inhibition (Human Melanocortin (MC3); human melanocortin MC3 membranes): − (“−” indicates less than 50% inhibition at 10 μM)
- A2 radioligand binding inhibition (Human κ-Opioid (KOP); human κ-opioid (KOP) membranes): − (“−” indicates less than 50% inhibition at 10 μM)
- A8 radioligand binding inhibition (Human neurokinin (NK1); human neurokinin NK1 membranes): + (“+” indicates greater than 50% inhibition at 10 μM)
- A10 radioligand binding inhibition (Human opioid (ORL1); human ORL1 membranes): − (“−” indicates less than 50% inhibition at 10 μM)
- A9 radioligand binding inhibition ([1]; human NPY-Y1 membranes): − (“−” indicates less than 50% inhibition at 10 μM)
- A6 radioligand binding inhibition ([2]; human MCH1 membranes): − (“−” indicates less than 50% inhibition at 10 μM)
- A11 radioligand binding inhibition (Mouse urotensin (mUR2); mouse urotensin mUR2 membranes): − (“−” indicates less than 50% inhibition at 10 μM)
- A1 radioligand binding inhibition (Human δ-opioid (DOP); human δ-opioid (DOP) membranes): − (“−” indicates less than 50% inhibition at 10 μM)
- A4 radioligand binding inhibition (Human Melanocortin (MC4); human melanocortin MC4 membranes): − (“−” indicates less than 50% inhibition at 10 μM)

SMILES: CC(=O)N[C@H]1C(NC(=O)CNC(=O)OC(C)(C)C)O[C@H](CO)[C@@H](O)[C@@H]1OCc1ccccc1 (stereo partly shown) [compound 359]
- A5: inhibition of radioligand binding, human melanocortin (MC5) (Human melanocortin (MC5); [125I]-NDP-αMSH): − (“−” indicates less than 50% inhibition at 10 μM)
- A7: inhibition of radioligand binding, human μ-opioid (MOP) (Human μ-opioid (MOP); [3H]-Naloxone): − (“−” indicates less than 50% inhibition at 10 μM)
- A3: inhibition of radioligand binding, human melanocortin (MC3) (Human Melanocortin (MC3); [125I]-NDP-αMSH): − (“−” indicates less than 50% inhibition at 10 μM)
- A2: inhibition of radioligand binding, human κ-opioid (KOP) (Human κ-Opioid (KOP); [3H]-Diprenorphine): − (“−” indicates less than 50% inhibition at 10 μM)
- A8: inhibition of radioligand binding, human neurokinin (NK1) (Human neurokinin (NK1); [125I]-Substance P): + (“+” indicates greater than 50% inhibition at 10 μM)
- A10: inhibition of radioligand binding, human opioid (ORL1) (Human opioid (ORL1); [125I]-Nociceptin): − (“−” indicates less than 50% inhibition at 10 μM)
- A9: inhibition of radioligand binding, human neuropeptide Y (NPY-Y1) ([1]; [125I]-PYY): + (“+” indicates greater than 50% inhibition at 10 μM)
- A6: inhibition of radioligand binding, human melanin-concentrating hormone (MCH1) ([2]; [125I]-S36057): − (“−” indicates less than 50% inhibition at 10 μM)
- A11: inhibition of radioligand binding, mouse urotensin (mUR2) (Mouse urotensin (mUR2); [125I]-Urotensin II): − (“−” indicates less than 50% inhibition at 10 μM)
- A1: inhibition of radioligand binding, human δ-opioid (DOP) (Human δ-opioid (DOP); [3H]-Bremazocine): − (“−” indicates less than 50% inhibition at 10 μM)
- A4: inhibition of radioligand binding, human melanocortin (MC4) (Human Melanocortin (MC4); [125I]-NDP-αMSH): − (“−” indicates less than 50% inhibition at 10 μM)
